Reference: patent publication US9796753B2, “N-substituted indenoisoquinolines and syntheses thereof” (Purdue Research Foundation, priority 2005, dated 2017)
Like-named read-outs stand apart in the source and are kept apart here. Blank lines part the entries; values can stand above or below the compound they belong to.

How the values were obtained:
CNS SF-539 = test: COMPARE screening (NCI human cancer cell line screen), cytotoxicity GI50; assay type: cell-based; conditions: Homo sapiens, CNSSF-539, read-out: cytotoxicity (GI50) CNS SF-539
How it was run: (§1)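 Sulforhodamine B read-out after 48 h exposure over five log concentrations (0.01-100 μM) in the NCI 60-cell-line panel. GI50 derived from percentage growth, as OD ratio to control, versus log10 concentration.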

colon HCT-116 = test: as above; assay type: cell-based; conditions: Homo sapiens, HCT-116, read-out: cytotoxicity (GI50) colon HCT-116
How it was run: as §1

lung HOP-62 = test: as above; assay type: cell-based; conditions: Homo sapiens, HOP-62, read-out: cytotoxicity (GI50) lung HOP-62
How it was run: as §1

melanoma UACC-62 = test: as above; assay type: cell-based; conditions: Homo sapiens, UACC-62, read-out: cytotoxicity (GI50) melanoma UACC-62
How it was run: as §1

ovarian OVCAR-3 = test: as above; assay type: cell-based; conditions: Homo sapiens, OVCAR-3, read-out: cytotoxicity (GI50) ovarian OVCAR-3
How it was run: as §1

prostate DU-145 = test: as above; assay type: cell-based; conditions: Homo sapiens, DU-145, read-out: cytotoxicity (GI50) prostate DU-145
How it was run: as §1

renal SN12C = test: as above; assay type: cell-based; conditions: Homo sapiens, SN12C, read-out: cytotoxicity (GI50) renal SN12C
How it was run: as §1

breast MDA-MB-435 = test: as above; assay type: cell-based; conditions: Homo sapiens, MDA-MB-435, read-out: cytotoxicity (GI50) breast MDA-MB-435
[1] = tested on: all human cancer cell lines successfully tested; test: NCI screen mean graph midpoint (MGM) for growth inhibition; assay type: cell-based
How it was run: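 NCI60 panel cells exposed to compound at 100, 10, 1, 0.1 and 0.01 μM for 48 h, then sulforhodamine B staining. Percentage growth versus control plotted against log concentration; MGM is the midpoint across all lines tested.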

Human recombinant Top1 = target: T1, Human recombinant Top1 (Homo sapiens, UniProt P11387); test: Topoisomerase 1-mediated DNA cleavage reactions (B), 117-bp DNA oligonucleotide; assay type: biochemical; parameters: key to Top1 inhibitory activity (level): 0, no detectable activity; +, weak activity; ++, similar activity to compound 33; +++, greater activity than 33; ++++, equipotent to 32; Ambiguous scores (e.g., between two values) are designated with parentheses (e.g., ++(+) would be between ++ and +++); key to Top1 (compound-induced DNA cleavage due to Top1 inhibition): 0, no detectable activity; +, weak activity; ++, similar activity to compound 5; +++, greater activity than 34; ++++ , equipotent to 32; The (+) ranking indicates the activity lies between two given values; conditions: Table 5; for Top1 inhibitory activity (level): relative to compounds 32 and 33; for Top1 (compound-induced DNA cleavage due to Top1 inhibition): semiquantitative scale relative to 1 μM camptothecin (32) or MJ-III-65 (34)
T1 construct: made in house
T1 sequence (P11387 1-765): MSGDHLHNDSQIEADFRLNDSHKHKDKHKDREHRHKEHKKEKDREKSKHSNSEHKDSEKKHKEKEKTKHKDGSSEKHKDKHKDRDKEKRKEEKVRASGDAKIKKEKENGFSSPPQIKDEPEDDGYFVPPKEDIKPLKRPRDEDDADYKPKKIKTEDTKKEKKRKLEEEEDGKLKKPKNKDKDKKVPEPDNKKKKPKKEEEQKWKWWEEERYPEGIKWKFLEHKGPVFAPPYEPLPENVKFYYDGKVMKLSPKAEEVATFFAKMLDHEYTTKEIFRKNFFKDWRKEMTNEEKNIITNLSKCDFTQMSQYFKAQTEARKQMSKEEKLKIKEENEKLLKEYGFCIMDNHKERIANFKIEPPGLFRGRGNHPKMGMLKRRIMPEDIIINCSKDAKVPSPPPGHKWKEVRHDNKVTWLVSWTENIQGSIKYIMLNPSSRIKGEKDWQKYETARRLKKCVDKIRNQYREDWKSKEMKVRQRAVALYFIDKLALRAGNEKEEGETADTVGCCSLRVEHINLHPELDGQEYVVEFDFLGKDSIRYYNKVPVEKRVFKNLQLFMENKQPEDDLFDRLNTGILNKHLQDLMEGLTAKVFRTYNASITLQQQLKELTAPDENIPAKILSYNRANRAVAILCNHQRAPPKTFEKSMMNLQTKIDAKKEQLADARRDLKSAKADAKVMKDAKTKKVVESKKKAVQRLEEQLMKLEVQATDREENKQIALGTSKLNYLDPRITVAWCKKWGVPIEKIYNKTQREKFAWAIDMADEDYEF
Method: Human recombinant Top1 was purified from baculovirus as described in Bailly, C. Curr. Med. Chem. 2000, 7, 39-58. DNA cleavage reactions were prepared as previously reported with the exception of the DNA substrate in Saltz, et al. Oncologist 1997, 2, 402-409.
Approximately 2 nM radiolabeled DNA substrate was incubated with recombinant Top1 in 20 μL of reaction buffer [10 mM Tris-HCl (pH 7.5), 50 mM KCl, 5 mM MgCl2, 0.1 mM EDTA, and 15 μg/mL BSA] at 25° C. for 20 min in the presence of various concentrations of compounds. […] Aliquots of each reaction mixture were subjected to 20% denaturing PAGE. Gels were dried and visualized using a phosphoimager and ImageQuant software (Molecular Dynamics).
All of the new indenoisoquinoline derivatives with C-2 side chains were tested in Top1-mediated DNA cleavage assays. For this purpose, a ^32P 3′-end labeled 117-bp DNA fragment was incubated with Top1 and four 10-fold dilutions starting from 100 μM of a tested compound. The DNA fragments were separated on 20% PAGE denaturing gels. The Top1 inhibitory activities were assigned on the basis of the visual inspection of the number and intensities of the gel bands corresponding to Top1-mediated DNA cleavage fragments. […] Ambiguous scores (e.g., between two values) are designated with parentheses (e.g., ++(+) would be between ++ and +++).

recombinant TDP1 = recombinant TDP1 (Homo sapiens, UniProt Q9NUW8); test: Gel-based assay measuring the inhibition of recombinant TDP1; assay type: biochemical
Method: A 5′-[^32P]-labeled single-stranded DNA oligonucleotide containing a 3′-phosphotyrosine (N14Y) was generated as described by Dexheimer et al. (J. Med. Chem. 2009, 52, 7122-7131). The DNA substrate was then incubated with 5 μM recombinant TDP1 in the absence or presence of inhibitor for 15 min at room temperature in a buffer containing 50 mM Tris HCl, pH 7.5, 80 mM KCl, 2 mM EDTA, 1 mM DTT, 40 μg/ml BSA and 0.01% Tween-20. Reactions were terminated by the addition of 1 volume of gel loading buffer [99.5% (v/v) formamide, 5 mM EDTA, 0.01% (w/v) xylene cyanol, and 0.01% (w/v) bromophenol blue]. Samples were subjected to a 16% denaturing PAGE and gels were exposed after drying to a PhosphorImager screen (GE Healthcare). Gel images were scanned using a Typhoon 8600 (GE Healthcare) and densitometric analyses were performed using the ImageQuant software (GE Healthcare).
The TDP1 inhibitory activities of the O-2-substituted indenoisoquinolines were measured by determining their abilities to inhibit the hydrolysis of the phosphodiester linkage between tyrosine and the 3′-end of a DNA oligonucleotide substrate and thus prevent the generation of an oligonucleotide with a free 3′-phosphate (N14P, Scheme 13). Therefore, the disappearance of the gel band for N14P indicates TDP1 inhibition.
Tyrosyl-DNA phosphodiesterase 1 (TDP1) is a DNA repair enzyme that repairs cytotoxic DNA damage induced by Top1 inhibitors.

[2] = Table 1, average GI50 of all cell lines tested (approximately 55), test range 10^−8 to 10^−4 molar
[3] = Table 5, determined in duplicate, read-out: TDP1 (IC50, semiquantitative scale)
[4] = Table 5, determined in duplicate, read-out: TDP1 inhibitory activity (potency score)

Chain of recombinant TDP1 (Q9NUW8 whole entry): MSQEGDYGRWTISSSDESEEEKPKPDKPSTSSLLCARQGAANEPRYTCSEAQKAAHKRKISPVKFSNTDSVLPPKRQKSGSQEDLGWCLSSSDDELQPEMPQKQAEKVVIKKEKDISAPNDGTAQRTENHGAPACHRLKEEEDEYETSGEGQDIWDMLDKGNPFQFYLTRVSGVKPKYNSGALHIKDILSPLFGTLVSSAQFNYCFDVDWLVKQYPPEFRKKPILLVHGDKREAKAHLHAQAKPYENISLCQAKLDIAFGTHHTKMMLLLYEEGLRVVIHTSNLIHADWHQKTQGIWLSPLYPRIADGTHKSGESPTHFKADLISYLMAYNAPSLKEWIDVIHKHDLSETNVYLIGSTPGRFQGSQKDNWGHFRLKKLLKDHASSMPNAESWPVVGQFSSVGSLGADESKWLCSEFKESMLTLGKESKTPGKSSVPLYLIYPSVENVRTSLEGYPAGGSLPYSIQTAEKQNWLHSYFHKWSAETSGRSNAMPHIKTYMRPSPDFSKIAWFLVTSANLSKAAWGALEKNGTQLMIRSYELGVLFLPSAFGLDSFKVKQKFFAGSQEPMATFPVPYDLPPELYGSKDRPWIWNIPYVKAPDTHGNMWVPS

SMILES: COc1cc2c(=O)n(CCCN3CCOCC3)c3c(c2cc1OCCCBr)C(=O)c1cc2c(cc1-3)OCO2 [Compound 19, 2-(3-Bromopropoxy)-3-methoxy-6-(3-morpholinopropyl)-5H-[1,3]dioxolo[4′,5′: 5,6]indeno[1,2-c]isoquinoline-5,12(6H)-dione]
- melting point: 197 to 199 °C

SMILES: COc1cc2c(=O)n(CCCN3CCOCC3)c3c(c2cc1OCCCN(C)C)C(=O)c1cc2c(cc1-3)OCO2 [Compound 23, 2-(3-(Dimethylamino)propoxy)-3-methoxy-6-(3-morpholinopropyl)-5H-[1,3]dioxolo[4′,5′:5,6]indeno[1,2-c]isoquinoline-5,12(6H)-dione]
- Top1 inhibitory activity (level) (Human recombinant Top1): +++
- Top1 (compound-induced DNA cleavage due to Top1 inhibition) (Human recombinant Top1): +++
- IC50 (recombinant TDP1; [3]): 12 to 37 µM
- IC50 (recombinant TDP1; [4]): 12 to 37 µM

SMILES: CCNCCCOc1cc2c3c(n(CCCN4CCOCC4)c(=O)c2cc1OC)-c1cc2c(cc1C3=O)OCO2 [Compound 24, 2-(3-(Ethylamino)propoxy)-3-methoxy-6-(3-morpholinopropyl)-5H-[1,3]dioxolo [4′,5′:5,6]indeno[1,2-c]isoquinoline-5,12(6H)-dione]
- Top1 inhibitory activity (level) (Human recombinant Top1): +++
- Top1 (compound-induced DNA cleavage due to Top1 inhibition) (Human recombinant Top1): +++
- IC50 (recombinant TDP1; [3]): 12 to 37 µM
- IC50 (recombinant TDP1; [4]): 12 to 37 µM

SMILES: COc1cc2c(=O)n(CCCN3CCOCC3)c3c(c2cc1OCCCN1CCN(C)CC1)C(=O)c1cc2c(cc1-3)OCO2 [Compound 26, 3-Methoxy-2-(3-(4-methylpiperazin-1-yl)propoxy)-6-(3-morpholinopropyl)-5H-[1,3]dioxolo[4′,5′:5,6]indeno[1,2-c]isoquinoline-5,12(6H)-dione]
- Top1 inhibitory activity (level) (Human recombinant Top1): +++
- Top1 (compound-induced DNA cleavage due to Top1 inhibition) (Human recombinant Top1): +++
- TDP1 inhibitory activity (in words) (recombinant TDP1): no TDP1 inhibitory activity was observed
- IC50 (recombinant TDP1; [3]): > 111 µM

SMILES: COc1cc2c(=O)n(CCCN3CCOCC3)c3c(c2cc1OCC(=O)NN)C(O)c1cc2c(cc1-3)OCO2 (centres unmarked) [Compound 31, 2-((12-Hydroxy-3-methoxy-6-(3-morpholinopropyl)-5-oxo-6,12-dihydro-5H-[1,3]dioxolo[4′,5′:5,6]indeno[1,2-c]isoquinolin-2-yl)oxy)acetohydrazide]
- Top1 inhibitory activity (level) (Human recombinant Top1): + or ++
- Top1 (compound-induced DNA cleavage due to Top1 inhibition) (Human recombinant Top1): +
- IC50 (recombinant TDP1; [3]): > 111 µM

SMILES: O=C1c2cc3c(cc2-c2c1c1cc(Cl)c(Cl)cc1c(=O)n2CCCn1ccnc1)OCO3 [Compound 44]
- GI50 ([1]; Homo sapiens, read-out: MGM GI50): 0.017 µM
- IC50 (recombinant TDP1; Table 7, scores correspond to IC50 ranges, read-out: TDP1 inhibition): > 111 µM

More lines, main results first:

- melting point: 228 to 231 °C
SMILES: Cl.NCCCCCCCn1c2c(c3ccccc3c1=O)C(=O)c1ccccc1-2 [Compound 5aq, 6-(7-Aminoheptyl)-5,6-dihydro-5,11-dioxo-11H-indeno[1,2-c]isoquinoline Hydrochloride]
- GI50 (CNS SF-539): 1.78 µM
- GI50 (colon HCT-116): 1.26 µM
- GI50 (lung HOP-62): 1.2 µM
- GI50 (melanoma UACC-62): 2 µM
- GI50 (ovarian OVCAR-3): 1.7 µM
- GI50 (prostate DU-145): 0.832 µM
- GI50 (renal SN12C): 1.66 µM
- GI50 (breast MDA-MB-435): 2.24 µM
- MGM (mean graph midpoint for growth inhibition) [1, 2]: 1.66 ± 0.155 µM

- melting point: 182 to 185 °C
SMILES: Cl.NCCCCCCCCn1c2c(c3ccccc3c1=O)C(=O)c1ccccc1-2 [Compound 5ar, 6-(8-Aminooctyl)-5,6-dihydro-5,11-dioxo-11H-indeno[1,2-c]isoquinoline Hydrochloride]
- GI50 (CNS SF-539): 2.82 µM
- GI50 (colon HCT-116): 1.66 µM
- GI50 (lung HOP-62): 2.14 µM
- GI50 (melanoma UACC-62): 3.8 µM
- GI50 (ovarian OVCAR-3): 3.47 µM
- GI50 (prostate DU-145): 3.39 µM
- GI50 (renal SN12C): 3.47 µM
- GI50 (breast MDA-MB-435): 5.62 µM
- MGM (mean GI50 across cell lines) [1, 2]: 3.71 µM

- melting point: 175 to 178 °C
SMILES: Cl.NCCCCCCCCCCCCn1c2c(c3ccccc3c1=O)C(=O)c1ccccc1-2 [Compound 5av, 6-(12-Aminododecyl)-5,6-dihydro-5,11-dioxo-11H-indeno[1,2-c]isoquinoline Hydrochloride]
- GI50 (CNS SF-539): 18.2 µM
- GI50 (lung HOP-62): 17 µM
- GI50 (melanoma UACC-62): 14.8 µM
- GI50 (ovarian OVCAR-3): 17.8 µM
- GI50 (prostate DU-145): 19.1 µM
- GI50 (renal SN12C): 13.5 µM
- GI50 (breast MDA-MB-435): 19.5 µM
- MGM (mean GI50 across cell lines) [1, 2]: 18.2 µM

- melting point: 290 to 292 °C
SMILES: COC1C=c2c3c([nH]c(=O)c2=CC1(CCCN1CCOCC1)OC)-c1cc2c(cc1C3=O)OCO2 (centres unmarked) [Compound 5q, 3-[(Morpholin-4-yl)-1-propyl]-5,6-dihydro-2,3-dimethoxy-8,9-methylenedioxy-5,11-dioxo-11H-indeno[1,2-c]isoquinoline]

- melting point: 306 to 308 °C
SMILES: COC1C=c2c3c([nH]c(=O)c2=CC1(CCCN1CCSCC1)OC)-c1cc2c(cc1C3=O)OCO2 (centres unmarked) [Compound 5r, 3-[(Thiomorpholin-4-yl)-1-propyl]-5,6-dihydro-2,3-dimethoxy-8,9-methylenedioxy-5,11-dioxo-11H-indeno[1,2-c]isoquinoline]

- melting point: 215 to 217 °C
SMILES: COc1cc2c3c(n(CCCNCCC4COCCN4)c(=O)c2cc1OC)-c1cc2c(cc1C3=O)OCO2 (centres unmarked) [Compound 5x, 6-[(3-Morpholylethylamino)-1-propyl]-5,6-dihydro-2,3-dimethoxy-8,9-methylenedioxy-5,11-dioxo-11H-indeno[1,2-c]isoquinoline]
